The results in this text go back to US9572785B2, “DP2 antagonist and uses thereof” (Brickell Biotech, Inc., priority 2009, dated 2017).

Series [1] concerns the target T1, DP2 receptor (Homo sapiens, UniProt Q9Y5Y4).
T1 sequence (Q9Y5Y4 1-395): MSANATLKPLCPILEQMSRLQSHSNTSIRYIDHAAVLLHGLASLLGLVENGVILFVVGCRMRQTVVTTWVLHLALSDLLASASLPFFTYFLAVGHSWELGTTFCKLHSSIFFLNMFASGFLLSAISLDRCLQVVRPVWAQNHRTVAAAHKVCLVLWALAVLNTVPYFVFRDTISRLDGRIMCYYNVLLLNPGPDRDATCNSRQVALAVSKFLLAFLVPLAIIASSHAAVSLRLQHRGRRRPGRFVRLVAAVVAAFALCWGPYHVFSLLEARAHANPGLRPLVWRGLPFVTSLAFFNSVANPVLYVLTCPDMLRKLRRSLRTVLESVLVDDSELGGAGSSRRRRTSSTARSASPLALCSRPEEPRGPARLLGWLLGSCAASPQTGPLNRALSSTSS
The series can be described thus: Whole blood eosinophil shape change (ESC) assay, human. The series is classed as cell-based. Also on record: endogenous in cells; host or cells: eosinophils in human whole blood.
Method: Blood is drawn from consenting human volunteers in EDTA vacutainer tubes and used within 1 hr of draw. […] The blood is vortexed and incubated at 37° C. for 5 minutes. 5 μl of 1 μM PGD2 in PBS is added for a final concentration of 50 nM and the tubes briefly vortexed. The reactions are incubated for exactly 5 minutes at 37° C. and then terminated by placing the tubes on ice and immediately adding 250 μl of ice-cold 1:4 diluted Cytofix (BD Biosciences). The reactions are transferred to 12×75 mM polystyrene round bottom tubes and the red blood cells lysed by the addition of 3 ml ammonium chloride lysing solution (150 mM NH4Cl, 10 mM KHCO3, 0.1 mM EDTA disodium salt) and incubation at room temperature for 15 minutes. The cells are pelleted by spinning at 1300 rpm for 5 minutes at 4° C. and washed once with 3 ml ice-cold PBS. The cells are resuspended in 0.2 ml of ice-cold 1:4 diluted Cytofix (BD Biosciences) and analyzed on a FACSCalibur (BD Biosciences) within 2 hours. Eosinophils were gated on the basis of autofluorescence in the FL2 channel and shape change on 500 eosinophils was assayed by forward scatter and side scatter analysis. The specific change in shape induced by PGD2 was calculated as the difference between the percentage of high forward scatter eosinophils in the presence and absence of PGD2.

The target in series [2] is T2, recombinant human CRTH2 receptor (Homo sapiens, UniProt Q9Y5Y4).
T2 construct: expressed in transfected cells
T2 sequence (Q9Y5Y4 1-395): T1 sequence (Q9Y5Y4 1-395)
As to the kind of experiment: In vitro GTPγS binding assay. It is filed as biochemical. The note with it: CHO membranes, 80 nM PGD2, 0.2% human serum albumin. A general note: GTPγS is a poorly hydrolysed GTP analogue; its binding reports G protein activation.

Series [3] addresses T3, DP2 receptor (Cavia porcellus, UniProt H0W1T0).
T3 sequence (H0W1T0 1-391): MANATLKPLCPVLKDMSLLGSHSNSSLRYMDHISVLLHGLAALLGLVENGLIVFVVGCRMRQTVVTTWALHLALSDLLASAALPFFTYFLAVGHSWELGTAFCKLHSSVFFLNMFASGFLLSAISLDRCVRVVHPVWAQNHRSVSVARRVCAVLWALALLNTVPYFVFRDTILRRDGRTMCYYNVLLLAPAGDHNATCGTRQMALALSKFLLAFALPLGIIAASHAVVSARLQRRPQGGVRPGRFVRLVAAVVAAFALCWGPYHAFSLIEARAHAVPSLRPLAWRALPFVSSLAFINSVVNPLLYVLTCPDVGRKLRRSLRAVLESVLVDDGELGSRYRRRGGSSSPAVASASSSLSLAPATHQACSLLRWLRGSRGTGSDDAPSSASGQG
As to the kind of experiment: Whole blood eosinophil shape change (ESC) assay, guinea pig. The series is classed as cell-based. The note with it: read-out: IC50, PGD2-induced eosinophil shape change.

The nature of series [4]: Properties of the amorphous phase. The series is classed as physicochemical.
The target of series [5] is T1, DP2 receptor. The series can be described thus: In vitro scintillation proximity assay (SPA) off-rate. The series is classed as binding. The conditions noted are these: compared with PGD2. (In general: In a scintillation proximity assay essentially only radioactivity close to the scintillant gives light.)
Series [6] deals with T1, DP2 receptor. As to the kind of experiment: In vitro DP2/CRTH2 radioligand binding assay ([3H]PGD2), human. The arrangement: expressed in transfected cells. How it is done:
HEK293 cells stably expressing recombinant human DP2 are resuspended in 10 mM Hepes, 7.4 containing 1 mM DTT, lysed and centrifuged at 75,000×g to pellet the membranes. The membranes are resuspended in 10 mM Hepes, 7.4 containing 1 mM DTT and 10% glycerol to approximately 5 mg protein/ml. […] The reactions are terminated by rapid filtration through Whatman GF/C glass fibre filter plates. […] After harvesting, the filter plates are washed 3 times with 1 ml cold Wash Buffer then dried. Scintillant is then added to the plates and the radioactivity retained on the filters is determined on a Packard TopCount (Perkin Elmer). Specific binding is determined as total radioactive binding minus non-specific binding in the presence of 10 μM PGD2. IC50s were determined using GraphPad prism analysis of drug titration curves. Mouse, rat and guinea pig DP2 receptors were also investigated.

One may read the IC90 as the concentration needed for an effect of 90%. A high value points to a need for much substance. As a reminder, the IC50 is the midpoint of a concentration-inhibition curve.

In turn, `CCN(Cc1cc(C(F)(F)F)ccc1-c1cc(CC(=O)O)ccc1OC)C(=O)NCc1ccccc1` [Compound 1, [2′-(3-benzyl-1-ethyl-ureidomethyl)-6-methoxy-4′-trifluoromethyl-biphenyl-3-yl]-acetic acid] gave an IC90 in series [1] of 7.5 nM. In addition, the half-inhibitory concentration (IC50) in series [1] (read-out: IC50, PGD2-induced eosinophil shape change) is 2.7 nM; in series [2], under 20 nM; in series [3], 21.5 nM; in series [6] (human DP2, membrane binding, read-out: average IC50, inhibition of radiolabeled PGD2 binding), 4.9 nM; in series [6] (with human serum albumin, read-out: IC50, DP2 receptor binding), 12.2 nM. Besides, the “solubility in water” value in series [4] is listed as “sparingly soluble in water”. Further, the “hygroscopicity, weight change” value in series [4] (from 0% to 90% relative humidity) stood at 1.7%. Moreover, the “off-rate from the DP2 receptor” value in series [5] is recorded as “longer off-rate than PGD2”.
